According to patent EP0156508A1, “Antifungal aerosol solution” (ORTHO PHARMACEUTICAL CORPORATION, priority 1984, dated 1985):
Where two headings read alike, the source gives them in different places.

Assay: Solubility of miconazole nitrate in several common solvents
Format: physicochemical
Source text: The imidazole ethers in general and the miconazoles in particular have very low solubilities in most solvents suitable for use in topical pharmaceutical compositions such as in the treatment of fungal skin infections. The solubility of miconazole nitrate, for example, in several common solvents has been determined to be as follows: […]

For `Clc1ccc(COC(Cn2ccnc2)c2ccc(Cl)cc2Cl)c(Cl)c1.O=[N+]([O-])O` (stereo not drawn) [miconazole nitrate, 1-[2,4-dichloro-β-(2,4-dichlorobenzyloxy)-phenethyl] imidazole nitrate], the solubility (Solvent: 40% PG/water, read-out: solubility) was 1300 µg/mL, the solubility (Solvent: HCl 0.1 N, read-out: solubility) was 500 µg/mL and the solubility (Solvent: NaOH) was “Insoluble”. For the same compound, the solubility (Solvent: Water, read-out: solubility) was 300 µg/mL, the solubility (organic solvent or mixture, Solvent: 2-Propanol, read-out: solubility) was 1300 µg/mL and the solubility (organic solvent or mixture, Solvent: Acetone, read-out: solubility) was 3400 µg/mL. For the same compound, the solubility (organic solvent or mixture, Solvent: Benzene, read-out: solubility) was 500 µg/mL, the solubility (organic solvent or mixture, Solvent: Chloroform, read-out: solubility) was 3100 µg/mL and the solubility (organic solvent or mixture, Solvent: Ethanol, read-out: solubility) was 7600 µg/mL. It also gave a solubility (organic solvent or mixture, Solvent: Ethyl Acetate, read-out: solubility) of 700 µg/mL, a solubility (organic solvent or mixture, Solvent: Hexane, read-out: solubility) of 300 µg/mL and a solubility (organic solvent or mixture, Solvent: Methanol, read-out: solubility) of 15000 µg/mL. For the same compound, the solubility (organic solvent or mixture, Solvent: Methyl Isobutylketone, read-out: solubility) was 400 µg/mL, the solubility (organic solvent or mixture, Solvent: PEG 300, read-out: solubility) was 1300 µg/mL and the solubility (organic solvent or mixture, Solvent: Propylene Glycol, read-out: solubility) was 1500 µg/mL. It also gave a solubility (organic solvent or mixture, Solvent: Tetrahydrofuran, read-out: solubility) of 2000 µg/mL.
